Assay results as given in US7125862B2, “Porphyrin-metal complexes and oxygen infusions containing the same” (Japan Science and Technology Agency, priority 2001, dated 2006).

Assay: Oxygen adsorption-desorption and oxygen affinity (P1/2) of the porphinatoiron(II) complex in toluene solution, by visible absorption spectrum
Format: binding
Procedure: 46.2 μg (0.03 μmol) of 2-8-(2-methyl-1-imidazolyl)octanoyloxymethyl-5,10,15,20-tetrakis(α,α,α,α-o-(1-methylcyclohexylamido)phenyl)porphinatoiron(III) complex-bromide synthesized in Example 7 was prepare into 10 ml of toluene anhydride solution and the atmosphere in the system was replaced with nitrogen. Then, the solution was mixed and stirred for 2 hours with an aqueous dithionous acid solution in a heterogeneous system to reduce the iron to the iron(II) state. Under nitrogen atmosphere, the toluene layer was extracted, dried over sodium sulfate anhydride and filtrated. The resulting toluene solution was transferred to and sealed in a measuring cell. Thus, a toluene solution of 2-8-(2-methyl-1-imidazolyl)octanoyloxymethyl-5,10,15,20-tetrakis(α,α,α,α-o-(1-methylcyclohexylamido)phenyl)porphinatoiron(II) complex was obtained. The visible absorption spectrum of this solution was λmax: 441, 539, 558 nm, and corresponded to that of a five-coordinated deoxy-type complex in which one imidazole was coordinated.
When oxygen gas was blown into this solution, the spectrum immediately changed to λmax: 424, 552 nm.
Consequently, the adsorption-desorption of oxygen could be continuously carried out by repeating the operation of blowing oxygen and then nitrogen.

2-8-(2-methyl-1-imidazolyl)octanoyloxymethyl-5,10,15,20-tetrakis(α,α,α,α-o-(1-methylcyclohexylamido)phenyl)porphinatoiron(II) complex [Example 11]
oxygen affinity (partial pressure of oxygen when 50% of the entire porphinatoiron is oxygenated (=P1/2)) (25° C.): 20 torr
reversibility of adsorption-desorption of oxygen (oxygen blown, then nitrogen gas for 1 minute, visible absorption spectrum): adsorption-desorption of oxygen occurred reversibly
